In patent US20160136229A1, “MATERIALS FOR POSITIVE CATHEPSIN B MODULATION AND METHODS OF USE FOR TREATING MILD COGNITIVE IMPAIRMENT (MCI), EARLY DEMENTIA, A-SYNUCLEINOPATHY, TRAUMATIC BRAIN INJURY, CARDIOMYOPATHY, EYE DISEASE AND SKIN DAMAGE” (University of North Carolina at Pembroke, priority 2013, published 2016):

Assays:
[1] = test system: active cathepsin B; assay: Active cathepsin B in rat organotypic heart slice cultures (Aβ-induced cardiomyopathy model); type: cell-based; details: 2 days of treatment, P=0.027 vs vehicle
Description: FIG. 9. The active form of cathepsin B is reduced in the slice model of Δβ-induced cardiomyopathy. Organotypic heart slice cultures from rats were treated with the control vehicle solution or with Δβ42, the peptide that accumulates in Alzheimer's disease brains as well as in heart tissue during some forms of cardiomyopathy.
To test for changes in cathepsin B during protein accumulation induced myopathy, heart slice cultures from rat were prepared and treated with […], the peptide that accumulates in Alzheimer's disease brains as well as in heart tissue during some forms of cardiomyopathy (Bateman et al., 2012; Sanbe et al., 2004, 2005).

[2] = test system: transgenic mouse model of Alzheimer's disease; details: cited from earlier work
[3] = test system: Fischer rats; details: cited from earlier work

| Compound | active cathepsin B in heart slices [1] | spatial learning [2] | spatial memory [3] |
| --- | --- | --- | --- |
| Aβ42: the peptide that accumulates in Alzheimer's disease brains as well as in heart tissue during some forms of cardiomyopathy | significant decrease | – | – |
| CC12CC3CC(C)(C1)CC(N)(C3)C2 [memantine] | – | improve spatial learning | failed to significantly improve |
